Assay results taken from the NIST ThermoML archive (doi:10.1021/je700546r).
Several values for one entry are separate records, joined by “and”; a condition that tells them apart may be missing. Equal values may be shown once.

Test: molar heat capacity at saturation pressure
Conditions: Crystal 3, Small (less than 1 g) adiabatic calorimetry

ON=C1CCCCC1 [cyclohexanone oxime]
Conditions | molar heat capacity
4.9 K | 0.339 J/K/mol
5.136 K | 0.3967 J/K/mol
5.378 K | 0.4649 J/K/mol
5.624 K | 0.5419 J/K/mol
5.878 K | 0.6278 J/K/mol
6.165 K | 0.7333 J/K/mol
6.485 K | 0.8621 J/K/mol
6.812 K | 1.006 J/K/mol
7.147 K | 1.167 J/K/mol
7.488 K | 1.338 J/K/mol
7.836 K | 1.53 J/K/mol
8.187 K | 1.735 J/K/mol
8.542 K | 1.956 J/K/mol
8.902 K | 2.19 J/K/mol
9.268 K | 2.438 J/K/mol
9.636 K | 2.708 J/K/mol
10 K | 2.981 J/K/mol
10.48 K | 3.361 J/K/mol
11.06 K | 3.83 J/K/mol
11.64 K | 4.325 J/K/mol
12.23 K | 4.854 J/K/mol
12.83 K | 5.408 J/K/mol
13.43 K | 5.992 J/K/mol
14.03 K | 6.572 J/K/mol
14.64 K | 7.153 J/K/mol
15.26 K | 7.796 J/K/mol
15.98 K | 8.601 J/K/mol
16.81 K | 9.497 J/K/mol
17.65 K | 10.37 J/K/mol
18.49 K | 11.28 J/K/mol
19.34 K | 12.18 J/K/mol
20.19 K | 13.08 J/K/mol
21.32 K | 14.35 J/K/mol
22.74 K | 15.89 J/K/mol
24.16 K | 17.46 J/K/mol
25.59 K | 19 J/K/mol
27.02 K | 20.5 J/K/mol
28.49 K | 22 J/K/mol
30.12 K | 23.63 J/K/mol
31.73 K | 25.22 J/K/mol
33.5 K | 26.88 J/K/mol
35.28 K | 28.48 J/K/mol
37.06 K | 30.01 J/K/mol
38.84 K | 31.47 J/K/mol
40.63 K | 32.89 J/K/mol
42.51 K | 34.38 J/K/mol
44.49 K | 35.9 J/K/mol
46.48 K | 37.34 J/K/mol
48.47 K | 38.76 J/K/mol
50.46 K | 40.11 J/K/mol
52.45 K | 41.42 J/K/mol
54.45 K | 42.64 J/K/mol
56.45 K | 43.84 J/K/mol
58.46 K | 45.02 J/K/mol
60.47 K | 46.16 J/K/mol
62.48 K | 47.28 J/K/mol
64.5 K | 48.37 J/K/mol
66.51 K | 49.44 J/K/mol
68.52 K | 50.51 J/K/mol
70.54 K | 51.55 J/K/mol
72.56 K | 52.59 J/K/mol
74.59 K | 53.59 J/K/mol
76.61 K | 54.6 J/K/mol
78.65 K | 55.6 J/K/mol
79.94 K | 56.26 J/K/mol
80.68 K | 56.58 J/K/mol
81.67 K | 57.04 J/K/mol
82.2 K | 57.24 J/K/mol
82.71 K | 57.54 J/K/mol
83.39 K | 57.84 J/K/mol
84.24 K | 58.2 J/K/mol
84.75 K | 58.47 J/K/mol
85.1 K | 58.59 J/K/mol
86.15 K | 59.05 J/K/mol
86.83 K | 59.4 J/K/mol
88.07 K | 59.96 J/K/mol
88.55 K | 60.2 J/K/mol
90 K | 60.85 J/K/mol
90.28 K | 61.01 J/K/mol
91.95 K | 61.75 J/K/mol
92.01 K | 61.8 J/K/mol
93.75 K | 62.62 J/K/mol
93.89 K | 62.67 J/K/mol
95.49 K | 63.42 J/K/mol
95.85 K | 63.56 J/K/mol
97.23 K | 64.21 J/K/mol
97.81 K | 64.45 J/K/mol
98.97 K | 65.03 J/K/mol
99.77 K | 65.37 J/K/mol
100.72 K | 65.83 J/K/mol
101.74 K | 66.25 J/K/mol
102.52 K | 66.6 J/K/mol
103.72 K | 67.14 J/K/mol
104.37 K | 67.44 J/K/mol
105.7 K | 68.04 J/K/mol
106.23 K | 68.29 J/K/mol
107.69 K | 68.92 J/K/mol
108.09 K | 69.08 J/K/mol
109.68 K | 69.81 J/K/mol
109.95 K | 69.92 J/K/mol
111.68 K | 70.69 J/K/mol
111.81 K | 70.76 J/K/mol
113.68 K | 71.57 J/K/mol and 71.56 J/K/mol
115.55 K | 72.37 J/K/mol
115.69 K | 72.45 J/K/mol
117.41 K | 73.2 J/K/mol
117.7 K | 73.35 J/K/mol
119.29 K | 74.03 J/K/mol
119.71 K | 74.22 J/K/mol
121.16 K | 74.85 J/K/mol
121.72 K | 75.08 J/K/mol
123.03 K | 75.63 J/K/mol
123.73 K | 75.98 J/K/mol
124.91 K | 76.46 J/K/mol
125.75 K | 76.86 J/K/mol
126.79 K | 77.29 J/K/mol
127.76 K | 77.72 J/K/mol
128.67 K | 78.11 J/K/mol
129.79 K | 78.6 J/K/mol
130.55 K | 78.91 J/K/mol
131.81 K | 79.49 J/K/mol
132.43 K | 79.75 J/K/mol
133.83 K | 80.38 J/K/mol
134.31 K | 80.58 J/K/mol
135.86 K | 81.28 J/K/mol
136.2 K | 81.42 J/K/mol
137.88 K | 82.16 J/K/mol
138.09 K | 82.25 J/K/mol
139.9 K | 83.05 J/K/mol
139.98 K | 83.08 J/K/mol
141.87 K | 83.93 J/K/mol
141.92 K | 83.95 J/K/mol
143.76 K | 84.77 J/K/mol
143.95 K | 84.85 J/K/mol
145.65 K | 85.62 J/K/mol
145.97 K | 85.73 J/K/mol
147.54 K | 86.49 J/K/mol
148 K | 86.67 J/K/mol
149.44 K | 87.35 J/K/mol
150.03 K | 87.59 J/K/mol
151.34 K | 88.17 J/K/mol
152.05 K | 88.52 J/K/mol
153.24 K | 89.05 J/K/mol
154.08 K | 89.42 J/K/mol
155.13 K | 89.89 J/K/mol
156.1 K | 90.34 J/K/mol
157.03 K | 90.77 J/K/mol
158.12 K | 91.27 J/K/mol
158.93 K | 91.65 J/K/mol
160.13 K | 92.24 J/K/mol
160.83 K | 92.53 J/K/mol
162.15 K | 93.18 J/K/mol
162.73 K | 93.45 J/K/mol
164.16 K | 94.14 J/K/mol
164.63 K | 94.35 J/K/mol
166.17 K | 95.08 J/K/mol
166.54 K | 95.25 J/K/mol
168.18 K | 96.07 J/K/mol
168.44 K | 96.2 J/K/mol
170.18 K | 97.05 J/K/mol
170.35 K | 97.13 J/K/mol
172.19 K | 98.05 J/K/mol
172.26 K | 98.07 J/K/mol
174.17 K | 99.06 J/K/mol
174.19 K | 99.05 J/K/mol
176.08 K | 100.02 J/K/mol
176.19 K | 100.08 J/K/mol
177.99 K | 101.03 J/K/mol
178.2 K | 101.13 J/K/mol
179.9 K | 102.04 J/K/mol
180.2 K | 102.17 J/K/mol
181.81 K | 103.07 J/K/mol
182.19 K | 103.23 J/K/mol
183.72 K | 104.11 J/K/mol
184.18 K | 104.31 J/K/mol
185.64 K | 105.14 J/K/mol
186.16 K | 105.44 J/K/mol
187.55 K | 106.25 J/K/mol
188.14 K | 106.57 J/K/mol
189.46 K | 107.37 J/K/mol
190.12 K | 107.71 J/K/mol
191.37 K | 108.48 J/K/mol
192.1 K | 108.92 J/K/mol
193.29 K | 109.62 J/K/mol
194.08 K | 110.15 J/K/mol
195.2 K | 110.84 J/K/mol
196.05 K | 111.36 J/K/mol
197.13 K | 112.05 J/K/mol
198.02 K | 112.6 J/K/mol
199.05 K | 113.28 J/K/mol
199.97 K | 113.87 J/K/mol
200.97 K | 114.62 J/K/mol
202 K | 115.31 J/K/mol
202.89 K | 116 J/K/mol
203.92 K | 116.79 J/K/mol
204.81 K | 117.51 J/K/mol
205.74 K | 118.31 J/K/mol
206.72 K | 119.13 J/K/mol
207.56 K | 119.91 J/K/mol
208.63 K | 120.93 J/K/mol
209.36 K | 121.66 J/K/mol
210.55 K | 122.71 J/K/mol
211.17 K | 123.38 J/K/mol
212.46 K | 124.68 J/K/mol
212.97 K | 125.27 J/K/mol
214.38 K | 126.63 J/K/mol
214.76 K | 127.11 J/K/mol
216.3 K | 128.63 J/K/mol
216.54 K | 128.94 J/K/mol
217 K | 129.41 J/K/mol
217.73 K | 130.26 J/K/mol
218.21 K | 130.69 J/K/mol
218.32 K | 130.87 J/K/mol
218.98 K | 131.5 J/K/mol
219.5 K | 132.12 J/K/mol
220.09 K | 132.7 J/K/mol
220.14 K | 132.72 J/K/mol
220.87 K | 133.52 J/K/mol
221.26 K | 133.99 J/K/mol
222.06 K | 134.69 J/K/mol
222.75 K | 135.43 J/K/mol
223.02 K | 135.78 J/K/mol
